The results in this text go back to PubChem BioAssay (NCI).

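In this assay, cells in 96-well plates receive the compound at five concentrations for 48 hours. Endpoints are linearly interpolated between the surrounding concentrations. GI50 = concentration required for 50% inhibition of growth. Definition used: TGI = concentration required for complete inhibition of growth.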

Among the test systems are K-562 leukemia; BT-549 breast; SF-539 CNS; SNB-19 CNS; ACHN renal; 786-0 renal; T-47D breast; MALME-3M melanoma.
Common to all, as to assay: NCI-60 cell line screen, 48 h

As to `CN(C)CCOc1ccccc1NC1=C(Cl)C(=O)C(Nc2ccccc2OCCN(C)C)=C(Cl)C1=O`, the GI50 in the test with K-562 leukemia was 2260 nM; in the test with BT-549 breast, 20700 nM; in the test with SF-539 CNS, 16400 nM; in the test on SNB-19 CNS, 24.9 µM; with ACHN renal it was 494 nM; in the test with 786-0 renal, 1640 nM. The GI50 with T-47D breast is 811 nM; in the test with MALME-3M melanoma, 3310 nM. In addition, the TGI in the test on K-562 leukemia is 5.41 µM; in the test with BT-549 breast it was over 49.7 µM; in the test with SF-539 CNS, over 48.3 µM; with SNB-19 CNS, over 49.8 µM; in the test with ACHN renal it was 1.6 µM; in the test on 786-0 renal it was 5.92 µM. For the same molecule, the TGI in the test on T-47D breast was 3.16 µM; in the test with MALME-3M melanoma, 12.8 µM.

For `CC1(C)CCC(C)(C)c2cc(NC(=O)c3ccc(C(=O)O)cc3)ccc21`, the TGI in the test with K-562 leukemia was over 100 µM; in the test on BT-549 breast, 68.1 µM; in the test with SF-539 CNS, over 51 µM; with SNB-19 CNS it was 99.3 µM; in the test on ACHN renal, over 100 µM; in the test with 786-0 renal, over 85.4 µM. Moreover, the TGI with T-47D breast was over 100 µM; in the test on MALME-3M melanoma, 60.1 µM.

For the molecule `CN(C)CCS(=O)(=O)Nc1cc(-c2ccc3ncc(C#N)c(Nc4ccc(F)c(Cl)c4)c3c2)cnc1Cl`, the GI50 is 229 nM in the test on K-562 leukemia; 107 nM in the test on BT-549 breast; 212 nM in the test on SF-539 CNS; 0.248 µM with SNB-19 CNS; 546 nM with ACHN renal; 307 nM with 786-0 renal. Also, the GI50 with T-47D breast is 73.2 nM; in the test with MALME-3M melanoma it was 78.8 nM. For the same molecule, the TGI in the test on K-562 leukemia was over 50.5 µM; in the test on BT-549 breast it was 0.485 µM; in the test with SF-539 CNS it was 1.17 µM; with SNB-19 CNS, 2.94 µM; in the test on ACHN renal, over 100 µM; with 786-0 renal, 3.61 µM. The values for the TGI in the test on T-47D breast and in the test with MALME-3M melanoma were 0.65 µM and 0.469 µM, respectively.

With `O=c1oc2ccc(Br)cc2c(=O)n1-c1ccc(Cl)cc1F`, the GI50 with K-562 leukemia is 646 nM; in the test with BT-549 breast, 480 nM; in the test on SF-539 CNS it was 854 nM; in the test on SNB-19 CNS, 0.506 µM; in the test with ACHN renal it was 1220 nM; in the test on 786-0 renal, 2380 nM. Further, the GI50 in the test with T-47D breast was 597 nM; in the test with MALME-3M melanoma, 664 nM. The TGI with K-562 leukemia was over 100 µM; in the test with BT-549 breast, 2.49 µM; with SF-539 CNS, 6.4 µM; in the test on SNB-19 CNS it was over 100 µM; with ACHN renal, 12.9 µM; in the test on 786-0 renal, 7.11 µM. Further, the TGI in the test with T-47D breast came out at 5.65 µM; in the test with MALME-3M melanoma, 3.32 µM.

Turning to `COC(=O)CNc1nc(N(C)O)nc(N(C)O)n1`, the GI50 in the test on K-562 leukemia is 2430 nM; with BT-549 breast, 13800 nM; with SF-539 CNS, 3480 nM; in the test with SNB-19 CNS, 27.3 µM; with ACHN renal, 1350 nM; in the test on 786-0 renal it was 3560 nM. Moreover, the GI50 in the test with T-47D breast was 17700 nM; in the test on MALME-3M melanoma it was 19300 nM. In addition, the TGI with K-562 leukemia was over 100 µM; in the test with BT-549 breast it was over 100 µM; in the test on SF-539 CNS, over 100 µM; with SNB-19 CNS, over 100 µM; in the test on ACHN renal it was over 100 µM; with 786-0 renal it was 66.8 µM. Also, the TGI in the test on T-47D breast is over 100 µM; in the test with MALME-3M melanoma, 77.4 µM.

As to `COc1cc(C2CC(=O)Nc3c2c(C)nn3-c2nc3ccccc3[nH]2)cc(OC)c1O` (centres undefined), the GI50 with K-562 leukemia is 4670 nM; in the test with BT-549 breast, 2600 nM; in the test on SF-539 CNS it was 3100 nM; with SNB-19 CNS it was 3.5 µM; with ACHN renal it was 3110 nM; in the test with 786-0 renal, 3010 nM. For the same molecule, the GI50 in the test with T-47D breast is 3450 nM; with MALME-3M melanoma, 1750 nM. The TGI in the test on K-562 leukemia was over 100 µM; in the test with BT-549 breast, 6.09 µM; in the test with SF-539 CNS it was 13.5 µM; with SNB-19 CNS, over 100 µM; with ACHN renal it was over 28.6 µM; in the test on 786-0 renal it was 9.39 µM. Moreover, the results for the TGI with T-47D breast and in the test on MALME-3M melanoma were 16.9 µM and 3.74 µM, respectively.

`COc1ccc(OC)c(/C=C/c2ccnc3ccccc23)c1`: the TGI with K-562 leukemia is 2.06 µM; in the test with BT-549 breast, 14.4 µM; in the test on SF-539 CNS, 0.671 µM; in the test on SNB-19 CNS it was 13.2 µM; with ACHN renal, 18.8 µM; in the test with 786-0 renal, 15.4 µM. The values for the TGI with T-47D breast and in the test on MALME-3M melanoma were 29.5 µM and 21.5 µM, respectively.

Consider `C=C1C(=O)O[C@H]2[C@H]1CC/C(CNC(=O)/C=C/c1ccccc1F)=C\CC[C@@]1(C)O[C@@H]21`, for which the GI50 was 577 nM in the test on K-562 leukemia; 1480 nM in the test with BT-549 breast; 1260 nM in the test on SF-539 CNS; 3.83 µM with SNB-19 CNS; 1120 nM in the test with ACHN renal; 1590 nM with 786-0 renal. In addition, the values for the GI50 in the test with T-47D breast and with MALME-3M melanoma were 1740 nM and 1540 nM, respectively. The TGI came to 7.45 µM with K-562 leukemia; 3.45 µM in the test with BT-549 breast; 2.94 µM in the test on SF-539 CNS; 14.4 µM with SNB-19 CNS; 2.53 µM in the test on ACHN renal; 3.71 µM in the test on 786-0 renal. Besides, the TGI turned out to be 4.53 µM in the test on T-47D breast and 3.52 µM with MALME-3M melanoma.

In the case of `Cc1ccc(OCCOCCOCCOCCOCCOc2ccc(C)n(O)c2=S)c(=S)n1O`, the GI50 is 38.3 nM with K-562 leukemia; 103 nM in the test on BT-549 breast; 60.6 nM in the test on SF-539 CNS; 0.118 µM with SNB-19 CNS; 49.4 nM with ACHN renal; 95.2 nM in the test with 786-0 renal. In addition, the values for the GI50 in the test on T-47D breast and in the test with MALME-3M melanoma were 40.2 nM and 109 nM, respectively. The TGI in the test with K-562 leukemia was over 100 µM; with BT-549 breast, over 64.5 µM; in the test on SF-539 CNS it was 15.1 µM; in the test with SNB-19 CNS it was over 100 µM; with ACHN renal it was over 87.2 µM; in the test with 786-0 renal it was over 100 µM. Besides, the figures for the TGI in the test with T-47D breast and in the test on MALME-3M melanoma were over 100 µM and over 34.6 µM, respectively.

In the case of `C/C=C(\C)C(=O)O[C@H]1C=CC(=O)O[C@H]1COC(=O)[C@H](C)O`, the GI50 with K-562 leukemia was 3690 nM; in the test on BT-549 breast it was 9560 nM; in the test on SF-539 CNS it was 9730 nM; in the test on SNB-19 CNS, 12.1 µM; in the test on ACHN renal it was 4380 nM; in the test with 786-0 renal, 6590 nM. The GI50 with T-47D breast is 3810 nM; in the test on MALME-3M melanoma it was 5500 nM. Also, the TGI was determined as 17.6 µM with K-562 leukemia; 21.7 µM in the test on BT-549 breast; 23.3 µM in the test on SF-539 CNS; 27 µM in the test on SNB-19 CNS; 16.6 µM with ACHN renal; 20.9 µM in the test on 786-0 renal. The figures for the TGI with T-47D breast and in the test with MALME-3M melanoma were 19.2 µM and 15.8 µM, respectively.
